Assay results as given in US6515124B2, “Dehydroamino acids” (Hoffman-La Roche Inc., priority 2000, dated 2003).

Tests used:
[1] = tested on: T lymphocyte proliferation (murine spleen cells); assay: Mixed Lymphocyte Reaction (MLR), one-way; format: cell-based, mice; details: Mus musculus, T-lymphocyte, light or radiation study, 72 h, C57B1/6 spleen cells with irradiated BALB/c spleen cells; tritiated thymidine incorporation, 3 days
From the text: Mixed Lymphocyte Reaction (MLR)
Admixture of murine spleen cells from two different inbred strains of mice induces proliferation of T lymphocytes. The magnitude of T cell proliferation depends on the extent of disparity in the major histocompatibility antigens between the two strains. Splenic T lymphocytes from both strains proliferate due to alloantigen recognition, a process for which the interaction of ICAM-1 on antigen-presenting cells with LFA-1 on lymphocytes is necessary. The ability of antagonists to inhibit T lymphocyte proliferation following recognition of alloantigens was assessed in a one-way MLR, where cells from one strain were irradiated to permit measurement of the proliferative response of cells from the other strain. Spleen cells were washed three times in tissue culture medium (TCM; see below). Fifty microliters of a spleen cell suspension (prepared at 10×10^6 cells/ml in TCM) obtained from C57B1/6 mice were added to an equal number of lethally-irradiated (2000 rads) spleen cells obtained from BALB/c mice in a 96-well U-bottom tissue culture plate (Costar, 3799). One hundred microliters of serial dilutions of antagonists or TCM were added to the spleen cell mixture. The total volume in each well was 200 μL. TCM was RPMI1640 containing 10% heat-inactivated fetal bovine serum, […] L-glutamine, 100 Units/ml each of penicillin and streptomycin and 5×10^−5 M 2-mercaptoethanol. Dilutions of antagonists were prepared in TCM. Plates were incubated in 5% CO2 for 3 days. On the third day, 0.5 μCi of tritiated thymidine (10 μCi/mL) was added to all the wells. Cells were harvested 6 h later on a 96-well plate harvester and the amount of tritiated thymidine incorporated was assessed in a liquid scintillation counter.

[2] = molecular target: T1, LFA-1 binding to immobilized ICAM-1 (Homo sapiens, UniProt P05107+P20701); assay: LFA-1/ICAM-1 Protein-Protein Assay (solid-phase ELISA); details: 5dICAM-Ig coated plates; membrane-bound LFA-1 from transfected 293 cells
T1 construct: made in house; host or cells: transfected 293 cells (LFA-1)
T1 sequence (P20701 26-1170): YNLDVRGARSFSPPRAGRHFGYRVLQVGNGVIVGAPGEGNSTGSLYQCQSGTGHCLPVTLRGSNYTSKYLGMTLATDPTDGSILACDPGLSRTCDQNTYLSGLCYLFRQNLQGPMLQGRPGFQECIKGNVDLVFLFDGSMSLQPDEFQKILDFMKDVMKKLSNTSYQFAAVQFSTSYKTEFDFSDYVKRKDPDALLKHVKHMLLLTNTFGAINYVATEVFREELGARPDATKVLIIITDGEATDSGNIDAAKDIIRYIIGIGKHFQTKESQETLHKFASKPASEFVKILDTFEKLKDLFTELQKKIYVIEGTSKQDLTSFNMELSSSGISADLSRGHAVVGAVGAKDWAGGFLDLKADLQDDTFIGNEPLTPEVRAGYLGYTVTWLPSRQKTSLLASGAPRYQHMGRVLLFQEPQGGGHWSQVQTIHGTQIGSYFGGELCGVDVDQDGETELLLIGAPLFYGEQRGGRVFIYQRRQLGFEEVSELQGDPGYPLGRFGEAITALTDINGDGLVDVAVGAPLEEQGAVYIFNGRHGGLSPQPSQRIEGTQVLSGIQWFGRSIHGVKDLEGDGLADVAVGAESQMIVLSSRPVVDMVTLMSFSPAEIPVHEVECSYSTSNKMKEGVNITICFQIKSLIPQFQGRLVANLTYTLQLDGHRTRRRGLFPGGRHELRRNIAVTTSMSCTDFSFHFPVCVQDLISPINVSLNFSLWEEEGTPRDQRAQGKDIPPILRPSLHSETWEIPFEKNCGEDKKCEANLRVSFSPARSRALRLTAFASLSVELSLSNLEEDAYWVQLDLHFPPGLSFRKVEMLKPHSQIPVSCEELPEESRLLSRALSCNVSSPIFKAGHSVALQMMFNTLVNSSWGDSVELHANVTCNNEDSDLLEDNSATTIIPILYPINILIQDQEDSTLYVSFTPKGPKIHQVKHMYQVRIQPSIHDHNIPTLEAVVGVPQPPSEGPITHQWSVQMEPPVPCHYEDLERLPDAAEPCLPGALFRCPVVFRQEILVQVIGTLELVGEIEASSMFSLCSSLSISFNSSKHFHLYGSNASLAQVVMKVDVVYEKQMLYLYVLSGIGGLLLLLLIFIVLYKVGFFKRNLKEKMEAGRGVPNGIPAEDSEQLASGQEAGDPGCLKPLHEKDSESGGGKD
T1 sequence (P05107 23-769): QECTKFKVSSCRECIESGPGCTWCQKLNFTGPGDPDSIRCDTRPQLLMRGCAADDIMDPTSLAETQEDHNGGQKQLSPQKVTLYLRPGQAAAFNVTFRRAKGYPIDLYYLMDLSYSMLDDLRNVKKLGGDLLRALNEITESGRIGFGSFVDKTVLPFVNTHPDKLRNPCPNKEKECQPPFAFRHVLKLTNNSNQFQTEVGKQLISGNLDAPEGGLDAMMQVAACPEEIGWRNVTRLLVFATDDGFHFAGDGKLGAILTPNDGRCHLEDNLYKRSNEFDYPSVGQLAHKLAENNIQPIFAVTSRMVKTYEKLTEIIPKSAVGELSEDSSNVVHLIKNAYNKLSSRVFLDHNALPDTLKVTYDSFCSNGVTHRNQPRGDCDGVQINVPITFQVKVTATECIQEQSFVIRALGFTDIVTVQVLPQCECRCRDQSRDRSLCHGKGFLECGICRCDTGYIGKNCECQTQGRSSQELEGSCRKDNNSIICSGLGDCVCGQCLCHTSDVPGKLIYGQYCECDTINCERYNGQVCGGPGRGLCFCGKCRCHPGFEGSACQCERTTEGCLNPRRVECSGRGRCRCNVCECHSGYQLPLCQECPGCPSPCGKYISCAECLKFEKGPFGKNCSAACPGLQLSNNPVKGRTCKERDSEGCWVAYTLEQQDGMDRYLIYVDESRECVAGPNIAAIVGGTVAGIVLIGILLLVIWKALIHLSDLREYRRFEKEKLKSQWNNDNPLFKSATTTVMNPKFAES
Protocol: LFA-1/ICAM-1 Protein-Protein Assay
LFA-1/ICAM-1 antagonist activity, defined as the ability to block LFA-1 binding to immobilized ICAM-1, was quantitated using a solid-phase ELISA. Typically, fusion protein consisting of the entire extracellular domain of human ICAM-1 and the Fc domain of human IgG (5dICAM-Ig) was coated onto 96-well microtiter plates (0.15 μg in 100 μL PBS) overnight at 4° C. The plates were then blocked with 150 μL of 1% BSA/1 mM MnCl2/0.14 M NaCl/20 mM HEPES, pH 7.2 for 1 h at 37° C. and washed 3 times (150 μL each) with Wash Buffer (50 mM Tris, pH 7.4/100 mM NaCl/1 mM MnCl2/0.05% Tween 20). Stock solutions (100 μM in 100% DMSO) of test compounds were diluted 50 fold with 150 μL of Binding Buffer (0.05% BSA/0.05% Tween 20/1 mM MnCl2/0.14 M NaCl/20 mM HEPES, pH 7.2) plus 10% DMSO. A series of 1:4 dilutions were performed to achieve a concentration range of 0.12 nM-2 μM. Fifty μL per well of each dilution was added to the ICAM-1 coated plates, followed by 50 μL per well of membrane-bound LFA-1 (280 ng/mL in Binding Buffer) derived from transfected 293 cells. The plates were shaken vigorously for 1 min (room temperature) and gently for 2 h (37° C.). After incubation, the plates were washed 3 times (150 μL each) with Wash Buffer. Mouse anti-human integrin β2 monoclonal antibody was added (100 μL/well, 1 μg/ml in Binding Buffer) and allowed to incubate for 1 h (37° C.) with gentle agitation. The plates were then washed 3 times with Wash Buffer. HRP-conjugated goat anti-mouse IgG (100 μL/well, 1:1500 dilution in Binding Buffer) was added to each well, followed by incubation for 1 h (37° C.) and concluded by three washes (150 μL each) with Wash Buffer. TMB solution (100 μL per well) was added for color development (10 min). The reaction was stopped by the addition of 100 μL of 1M H3PO4 to each well. The plates were then read at 450 nm.

Structure (SMILES): O=C(O)/C(=C/c1cnc2ccccc2c1)NC(=O)c1ccc(C(O)CCc2cccc(O)c2)cc1Cl (racemic) [Example 296, rac.-(Z)-2-[[2-Chloro-4-[1-hydroxy-3-(3-hydroxyphenyl)propan-1-yl]benzoyl]amino]-3-(quinolin-3-yl)propenoic Acid]
- IC50 [1]: 2400 nM
- IC50 [2]: 1.56 nM

Structure (SMILES): Cc1nc(C)c(/C=C(\NC(=O)c2ccc(C(O)CCc3cccc(O)c3)cc2Cl)C(=O)O)s1 (racemic) [Example 297, rac.-(Z)-2-[[2-Chloro-4-[1-hydroxy-3-(3-hydroxyphenyl)propan-1-yl]benzoyl]amino]-3-(2,4-dimethylthiazol-5-yl)propenoic Acid]
- IC50 [1]: 5700 nM
- IC50 [2]: 5.96 nM

Structure (SMILES): O=C(O)/C(=C/c1cnc2ccccc2c1)NC(=O)c1ccc(C(O)/C=C/c2cccc(O)c2)cc1Cl (racemic) [Example 298, rac.-(Z)-2-[[2-Chloro-4-[(E)-1-hydroxy-3-(3-hydroxyphenyl)prop-2-en-1-yl]benzoyl]amino]-3-(quinolin-3-yl)propenoic Acid]
- IC50 [1]: 6200 nM
- IC50 [2]: 4.26 nM

Structure (SMILES): Cc1nc(C)c(/C=C(\NC(=O)c2ccc(C(O)/C=C/c3cccc(O)c3)cc2Cl)C(=O)O)s1 (racemic) [Example 299, rac.-(Z)-2-[[2-Chloro-4-[(E)-1-hydroxy-3-(3-hydroxyphenyl)prop-2-en-1-yl]benzoyl]amino]-3-(2,4-dimethylthiazol-5-yl)propenoic Acid]
- IC50 [1]: 10000 nM
- IC50 [2]: 13.1 nM

Structure (SMILES): O=C(O)/C(=C/C1CCCNC1)NC(=O)c1ccc(C(=O)NCc2cccc(O)c2)cc1Br (racemic) [Example 318]
- IC50 [2]: 171 nM

Structure (SMILES): O=C(O)/C(=C/CC1CCCCN1)NC(=O)c1ccc(C(=O)NCc2cccc(O)c2)cc1Br (racemic) [Example 320]
- IC50 [2]: 140 nM

Structure (SMILES): Cc1nc(/C=C(\NC(=O)c2ccc(C(=O)NCc3cccc(O)c3)cc2Br)C(=O)O)cs1 [Example 235, (Z)-2-[[2-Bromo-4-[[(3-hydroxybenzyl)amino]carbonyl]benzoyl]amino]-3-(2-methylthiazol-4-yl)propenoic Acid]
- IC50 [1]: 13500 nM
- IC50 [2]: 42.9 nM

Structure (SMILES): Cc1cc(C(=O)N[C@H](C)c2cccc3ccccc23)cc(C)c1C(=O)N/C(=C\c1ncc[nH]1)C(=O)O [Example 236]
- IC50 [1]: 7180 nM
- IC50 [2]: 25.6 nM

Structure (SMILES): Cc1cc(C(=O)N[C@H](C)c2cccc3ccccc23)cc(C)c1C(=O)N/C(=C\c1ccccc1)C(=O)O [Example 237]
- IC50 [1]: 20000 nM
- IC50 [2]: 27 nM

Structure (SMILES): Cc1cc(C(=O)N[C@H](C)c2cccc3ccccc23)cc(C)c1C(=O)N/C(=C\c1ccncc1)C(=O)O [Example 238]
- IC50 [2]: 16.7 nM

Structure (SMILES): Cc1cc(C(=O)N[C@H](C)c2cccc3ccccc23)cc(C)c1C(=O)N/C(=C\c1ccc2[nH]nnc2c1)C(=O)O [Example 239]
- IC50 [2]: 2.15 nM

Structure (SMILES): Cc1cc(C(=O)N[C@H](C)c2cccc3ccccc23)cc(C)c1C(=O)N/C(=C\c1[nH]cnc1C)C(=O)O [Example 240]
- IC50 [1]: 3470 nM
- IC50 [2]: 4.78 nM

Structure (SMILES): Cc1cc(C(=O)N[C@H](C)c2cccc3ccccc23)cc(C)c1C(=O)N/C(=C\c1cnc2ccccc2c1)C(=O)O [Example 241]
- IC50 [1]: 2600 nM
- IC50 [2]: 2.04 nM

Structure (SMILES): C[C@@H](NC(=O)c1cc(Cl)c(C(=O)N/C(=C\c2ccc3[nH]nnc3c2)C(=O)O)c(Cl)c1)c1cccc2ccccc12 [Example 242]
- IC50 [2]: 22 nM

Structure (SMILES): O=C(O)/C(=C/c1ccoc1)NC(=O)c1ccc(C(=O)NCc2cccc(O)c2)cc1Br [Example 243]
- IC50 [2]: 13.2 nM

Structure (SMILES): Cc1nc(C)c(/C=C(\NC(=O)c2ccc(C(=O)NCc3cccc(O)c3)cc2Cl)C(=O)O)s1 [Example 244]
- IC50 [1]: 3000 nM
- IC50 [2]: 1.95 nM

Structure (SMILES): O=C(O)/C(=C/c1ccc2ncsc2c1)NC(=O)c1ccc(C(=O)NCc2cccc(O)c2)cc1Cl [Example 245]
- IC50 [1]: 1380 nM
- IC50 [2]: 0.94 nM

Structure (SMILES): O=C(O)/C(=C/c1ccc2nonc2c1)NC(=O)c1ccc(C(=O)NCc2cccc(O)c2)cc1Cl [Example 246]
- IC50 [1]: 7850 nM
- IC50 [2]: 2.4 nM

Structure (SMILES): Cc1cc(C(=O)NCc2cc(F)cc(F)c2)cc(C)c1C(=O)N/C(=C\c1[nH]cnc1C)C(=O)O [Example 250, (Z)-2-[[4-[[(3,5-Difluorobenzyl)amino]carbonyl]-2,6-dimethylbenzoyl]amino]-3-(4-methyl-1H-imidazol-5-yl)propenoic Acid]
- IC50 [2]: 37 nM

Structure (SMILES): CC(C)c1csc(/C=C(\NC(=O)c2ccc(C(=O)NCc3cccc(O)c3)cc2Br)C(=O)O)n1 [Example 256]
- IC50 [2]: 279 nM

Structure (SMILES): O=C(O)/C(=C/c1nc(C(F)(F)F)cs1)NC(=O)c1ccc(C(=O)NCc2cccc(O)c2)cc1Br [Example 257]
- IC50 [2]: 101 nM

Structure (SMILES): Cc1nc(C(C)C)c(/C=C(\NC(=O)c2ccc(C(=O)NCc3cccc(O)c3)cc2Br)C(=O)O)s1 [Example 259]
- IC50 [2]: 8.14 nM

Structure (SMILES): O=C(O)/C(=C/c1cnc(-c2cccs2)s1)NC(=O)c1ccc(C(=O)NCc2cccc(O)c2)cc1Br [Example 262]
- IC50 [2]: 123 nM

Structure (SMILES): O=C(O)/C(=C/c1cnnc2ccccc12)NC(=O)c1ccc(C(=O)NCc2cccc(O)c2)cc1Br [Example 265]
- IC50 [2]: 124 nM

Structure (SMILES): O=C(O)/C(=C/c1cccs1)NC(=O)c1ccc(C(=O)NCc2cccc(O)c2)cc1Br [Example 271]
- IC50 [2]: 33 nM

Structure (SMILES): O=C(O)/C(=C/c1ccc2ccccc2n1)NC(=O)c1ccc(C(=O)NCc2cccc(O)c2)cc1Br [Example 275]
- IC50 [2]: 42.5 nM

Structure (SMILES): O=C(O)/C(=C/c1nc2ccccc2s1)NC(=O)c1ccc(C(=O)NCc2cccc(O)c2)cc1Br [Example 276]
- IC50 [2]: 50.6 nM

Structure (SMILES): COc1ncc(/C=C(\NC(=O)c2ccc(C(=O)NCc3cccc(O)c3)cc2Br)C(=O)O)c(OC)n1 [Example 284]
- IC50 [2]: 12.6 nM

Structure (SMILES): Cn1c(/C=C(\NC(=O)c2ccc(C(=O)NCc3cccc(O)c3)cc2Br)C(=O)O)nc2ccccc21 [Example 288]
- IC50 [2]: 201 nM

Structure (SMILES): CC/C=C(\NC(=O)c1ccc(C(=O)NCc2cccc(O)c2)cc1Br)C(=O)O [Example 289]
- IC50 [2]: 40.9 nM

Structure (SMILES): CCc1nc(C(C)C)c(/C=C(\NC(=O)c2ccc(C(=O)NCc3cccc(O)c3)cc2Cl)C(=O)O)s1 [Example 303, (Z)-2-[[2-Chloro-4-[[3-(3-hydroxybenzyl)amino]carbonyl]benzoyl]amino]-3-[2-ethyl-4-(1-methylethyl)thiazol-5-yl]propenoic Acid]
- IC50 [2]: 190 nM

Structure (SMILES): O=C(O)/C(=C/c1cccs1)NC(=O)c1ccc(C(=O)NCc2cccc3[nH]ccc23)cc1Cl [Example 308]
- IC50 [2]: 56.3 nM

Structure (SMILES): O=C(O)/C(=C/c1ccccn1)NC(=O)c1ccc(C(=O)NCc2cccc3[nH]ccc23)cc1Cl [Example 310]
- IC50 [2]: 56.1 nM

Structure (SMILES): O=C(O)/C(=C/c1ccsc1)NC(=O)c1ccc(C(=O)NCc2cccc(O)c2)cc1Br [Example 313]
- IC50 [2]: 8.2 nM

Structure (SMILES): O=C(O)/C(=C/C1CCNCC1)NC(=O)c1ccc(C(=O)NCc2cccc(O)c2)cc1Br [Example 319]
- IC50 [2]: 72 nM

Structure (SMILES): O=C(O)/C(=C/c1cnc2ccccc2c1)NC(=O)c1ccc(C(=O)NCc2ccc3cc[nH]c3c2)cc1Cl [Example 324, (Z)-2-[[2-Chloro-4-[[[(1N-indol-6-yl)methyl]amino]carbonyl]benzoyl]amino]-3-(quinolin-3-yl)propenoic Acid]
- IC50 [2]: 50.8 nM

Structure (SMILES): Cc1cc(C(=O)NCc2cccc(O)c2)cc(C)c1C(=O)N/C(=C\c1ccc2[nH]nnc2c1)C(=O)O [Example 326, (Z)-3-(1H-Benzotriazol-5-yl)-2-[[4-[[(3-hydroxybenzyl)amino]carbonyl]-2,6-dimethylbenzoyl]amino]propenoic Acid]
- IC50 [2]: 1.12 nM

Structure (SMILES): C[C@@H](NC(=O)c1ccc(C(=O)N/C(=C\c2cccs2)C(=O)O)c(Cl)c1)c1cccc2ccccc12 [Example 327]
- IC50 [2]: 20.4 nM
